From PubChem BioAssay AID1963832 (Molecular Pharmacology Branch, DTP, NCI, 2024)
pIC50: −log10 of the molar value.

System: 885724-159-R-J1-PDC complex spheroid viability
Experiment: Anticancer human tumor 885724-159-R-J1-PDC patient-derived pancreatic adenocarcinoma cell line growth inhibition [POLQ]
Settings: for pIC50: curve of first compound; for viability, T/C: stronger effect = lower value
Method in brief: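 Patient-derived tumour cells were co-cultured with HUVEC and mesenchymal stem cells as multicellular spheroids at 37 °C. They were treated with POLQ inhibitors (novobiocin, ART-558, RP6685) alone or combined with other agents. Top concentrations were at or near clinical Cmax (otherwise 10 microM; SN-38 at 1 microM), decreasing in half-log steps.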

[1] = second compound 0.0316 µM, first compound 0.0316 µM
[2] = second compound 0.0316 µM, first compound 0.1 µM
[3] = second compound 0.0316 µM, first compound 0.316 µM
[4] = second compound 0.0316 µM, first compound 1 µM
[5] = second compound 0.0316 µM, first compound 3.16 µM
[6] = second compound 0.0316 µM, first compound 10 µM
[7] = second compound 0.1 µM, first compound 0.0316 µM
[8] = second compound 0.1 µM, first compound 0.1 µM
[9] = second compound 0.1 µM, first compound 0.316 µM
[10] = second compound 0.1 µM, first compound 1 µM
[11] = second compound 0.1 µM, first compound 3.16 µM
[12] = second compound 0.1 µM, first compound 10 µM
[13] = second compound 0.316 µM, first compound 0.0316 µM
[14] = second compound 0.316 µM, first compound 0.1 µM
[15] = second compound 0.316 µM, first compound 0.316 µM
[16] = second compound 0.316 µM, first compound 1 µM
[17] = second compound 0.316 µM, first compound 3.16 µM
[18] = second compound 0.316 µM, first compound 10 µM
[19] = second compound 1 µM, first compound 0.0316 µM
[20] = second compound 1 µM, first compound 0.1 µM
[21] = second compound 1 µM, first compound 0.316 µM
[22] = second compound 1 µM, first compound 1 µM
[23] = second compound 1 µM, first compound 3.16 µM
[24] = second compound 1 µM, first compound 10 µM
[25] = second compound 3.16 µM, first compound 0.0316 µM
[26] = second compound 3.16 µM, first compound 0.1 µM
[27] = second compound 3.16 µM, first compound 0.316 µM
[28] = second compound 3.16 µM, first compound 1 µM
[29] = second compound 3.16 µM, first compound 3.16 µM
[30] = second compound 3.16 µM, first compound 10 µM
[31] = second compound 10 µM, first compound 0.0316 µM
[32] = second compound 10 µM, first compound 0.1 µM
[33] = second compound 10 µM, first compound 0.316 µM
[34] = second compound 10 µM, first compound 1 µM
[35] = second compound 10 µM, first compound 3.16 µM
[36] = second compound 10 µM, first compound 10 µM
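Also: spheroids exposed to compounds for 7 days.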

Compound `CC(=O)O[C@H]1C(=O)[C@@]2(C)[C@H]([C@H](OC(=O)c3ccccc3)[C@]3(O)C[C@H](OC(=O)[C@H](O)[C@@H](NC(=O)c4ccccc4)c4ccccc4)C(C)=C1C3(C)C)[C@]1(OC(C)=O)CO[C@@H]1C[C@@H]2O` + Cc1cccc(N(C)C(=O)C2C(O)CCN2c2nc(C)cc(C(F)(F)F)c2C#N)c1 has a pIC50 (second compound 0.0316 µM) of under 5.52, a pIC50 (second compound 0.1 µM) of under 5.52 and a pIC50 (second compound 0.316 µM) of under 5.52. For the same compound, the pIC50 (second compound 1 µM) was under 5.52, the pIC50 (second compound 3.16 µM) was under 5.52 and the pIC50 (second compound 10 µM) was under 5.52. It also gave a viability, T/C (second compound 0.0316 µM, first compound 0.00949 µM) of 76.7%, a viability, T/C (second compound 0.0316 µM, first compound 0.03 µM) of 57.6% and a viability, T/C (second compound 0.0316 µM, first compound 0.0949 µM) of 58.8%. It also gave a viability, T/C (second compound 0.0316 µM, first compound 0.3 µM) of 62.2%, a viability, T/C (second compound 0.0316 µM, first compound 0.949 µM) of 70.6% and a viability, T/C (second compound 0.0316 µM, first compound 3 µM) of 61%. It also gave a viability, T/C (second compound 0.1 µM, first compound 0.00949 µM) of 75.1%, a viability, T/C (second compound 0.1 µM, first compound 0.03 µM) of 59.4% and a viability, T/C (second compound 0.1 µM, first compound 0.0949 µM) of 59.8%. It also gave a viability, T/C (second compound 0.1 µM, first compound 0.3 µM) of 70.4%, a viability, T/C (second compound 0.1 µM, first compound 0.949 µM) of 67.3% and a viability, T/C (second compound 0.1 µM, first compound 3 µM) of 70.6%. For the same compound, the viability, T/C (second compound 0.316 µM, first compound 0.00949 µM) was 67.6%, the viability, T/C (second compound 0.316 µM, first compound 0.03 µM) was 59.6% and the viability, T/C (second compound 0.316 µM, first compound 0.0949 µM) was 63%. For the same compound, the viability, T/C (second compound 0.316 µM, first compound 0.3 µM) was 63.6%, the viability, T/C (second compound 0.316 µM, first compound 0.949 µM) was 75.4% and the viability, T/C (second compound 0.316 µM, first compound 3 µM) was 69.7%. The viability, T/C (second compound 1 µM, first compound 0.00949 µM) was 68.2%, the viability, T/C (second compound 1 µM, first compound 0.03 µM) was 66.3% and the viability, T/C (second compound 1 µM, first compound 0.0949 µM) was 62.8%. The viability, T/C (second compound 1 µM, first compound 0.3 µM) was 67.2%, the viability, T/C (second compound 1 µM, first compound 0.949 µM) was 69.1% and the viability, T/C (second compound 1 µM, first compound 3 µM) was 68.9%. For the same compound, the viability, T/C (second compound 3.16 µM, first compound 0.00949 µM) was 62.5%, the viability, T/C (second compound 3.16 µM, first compound 0.03 µM) was 55.1% and the viability, T/C (second compound 3.16 µM, first compound 0.0949 µM) was 59.4%. The viability, T/C (second compound 3.16 µM, first compound 0.3 µM) was 63.8%, the viability, T/C (second compound 3.16 µM, first compound 0.949 µM) was 67.6% and the viability, T/C (second compound 3.16 µM, first compound 3 µM) was 64.5%. It also gave a viability, T/C (second compound 10 µM, first compound 0.00949 µM) of 59.1%, a viability, T/C (second compound 10 µM, first compound 0.03 µM) of 61.1% and a viability, T/C (second compound 10 µM, first compound 0.0949 µM) of 61%. It also gave a viability, T/C (second compound 10 µM, first compound 0.3 µM) of 66%, a viability, T/C (second compound 10 µM, first compound 0.949 µM) of 62.7% and a viability, T/C (second compound 10 µM, first compound 3 µM) of 72%.

`COc1cc(C2c3cc4c(cc3C(OC3OC5COC(C)OC5C(O)C3O)C3COC(=O)C23)OCO4)cc(OC)c1O` (stereo unspecified) + Cc1cccc(N(C)C(=O)C2C(O)CCN2c2nc(C)cc(C(F)(F)F)c2C#N)c1 gave a pIC50 (second compound 0.0316 µM) of 5.09, a pIC50 (second compound 0.1 µM) of 5.04 and a pIC50 (second compound 0.316 µM) of 5.04. It also gave a pIC50 (second compound 1 µM) of 5.16, a pIC50 (second compound 3.16 µM) of 5.16 and a pIC50 (second compound 10 µM) of 5.22. The viability, T/C [1] was 101%, the viability, T/C [2] was 90.2% and the viability, T/C [3] was 80.7%. For the same compound, the viability, T/C [4] was 75%, the viability, T/C [5] was 57.7% and the viability, T/C [6] was 48.1%. It also gave a viability, T/C [7] of 94.7%, a viability, T/C [8] of 86.1% and a viability, T/C [9] of 79.5%. It also gave a viability, T/C [10] of 73.4%, a viability, T/C [11] of 63.2% and a viability, T/C [12] of 47.5%. For the same compound, the viability, T/C [13] was 95.4%, the viability, T/C [14] was 99.8% and the viability, T/C [15] was 74.6%. For the same compound, the viability, T/C [16] was 71%, the viability, T/C [17] was 58.2% and the viability, T/C [18] was 48.4%. For the same compound, the viability, T/C [19] was 100%, the viability, T/C [20] was 79.3% and the viability, T/C [21] was 74%. It also gave a viability, T/C [22] of 71%, a viability, T/C [23] of 55.7% and a viability, T/C [24] of 45.4%. For the same compound, the viability, T/C [25] was 98.1%, the viability, T/C [26] was 96.9% and the viability, T/C [27] was 76.2%. For the same compound, the viability, T/C [28] was 67.3%, the viability, T/C [29] was 58.6% and the viability, T/C [30] was 45.9%. The viability, T/C [31] was 95.9%, the viability, T/C [32] was 80% and the viability, T/C [33] was 74.9%. For the same compound, the viability, T/C [34] was 62.6%, the viability, T/C [35] was 58.2% and the viability, T/C [36] was 44.2%.

For `O=c1[nH]cc(F)c(=O)[nH]1` + Cc1cccc(N(C)C(=O)C2C(O)CCN2c2nc(C)cc(C(F)(F)F)c2C#N)c1, the pIC50 (second compound 0.0316 µM) was under 5.00, the pIC50 (second compound 0.1 µM) was under 5.00 and the pIC50 (second compound 0.316 µM) was under 5.00. For the same compound, the pIC50 (second compound 1 µM) was under 5.00, the pIC50 (second compound 3.16 µM) was under 5.00 and the pIC50 (second compound 10 µM) was under 5.00. The viability, T/C [1] was 98.5%, the viability, T/C [2] was 101% and the viability, T/C [3] was 95.8%. It also gave a viability, T/C [4] of 100%, a viability, T/C [5] of 90.2% and a viability, T/C [6] of 76.4%. It also gave a viability, T/C [7] of 97.7%, a viability, T/C [8] of 104% and a viability, T/C [9] of 98.7%. The viability, T/C [10] was 106%, the viability, T/C [11] was 90% and the viability, T/C [12] was 74.7%. The viability, T/C [13] was 98.7%, the viability, T/C [14] was 88.6% and the viability, T/C [15] was 97.5%. The viability, T/C [16] was 99%, the viability, T/C [17] was 87.5% and the viability, T/C [18] was 71.9%. It also gave a viability, T/C [19] of 111%, a viability, T/C [20] of 107% and a viability, T/C [21] of 101%. For the same compound, the viability, T/C [22] was 98.2%, the viability, T/C [23] was 92% and the viability, T/C [24] was 76.7%. It also gave a viability, T/C [25] of 114%, a viability, T/C [26] of 96.2% and a viability, T/C [27] of 88%. For the same compound, the viability, T/C [28] was 100%, the viability, T/C [29] was 87.3% and the viability, T/C [30] was 71.7%. For the same compound, the viability, T/C [31] was 99%, the viability, T/C [32] was 101% and the viability, T/C [33] was 89.8%. It also gave a viability, T/C [34] of 89.4%, a viability, T/C [35] of 92.9% and a viability, T/C [36] of 78.6%.
